Biological target: T1, USP30 (Homo sapiens, UniProt Q70CQ3)
T1 construct: We next determined cellular engagement of endogenous USP30 with IMP-2587 or IMP-2586; endogenous in cells; host or cells: HEK293T
T1 sequence (Q70CQ3 1-517): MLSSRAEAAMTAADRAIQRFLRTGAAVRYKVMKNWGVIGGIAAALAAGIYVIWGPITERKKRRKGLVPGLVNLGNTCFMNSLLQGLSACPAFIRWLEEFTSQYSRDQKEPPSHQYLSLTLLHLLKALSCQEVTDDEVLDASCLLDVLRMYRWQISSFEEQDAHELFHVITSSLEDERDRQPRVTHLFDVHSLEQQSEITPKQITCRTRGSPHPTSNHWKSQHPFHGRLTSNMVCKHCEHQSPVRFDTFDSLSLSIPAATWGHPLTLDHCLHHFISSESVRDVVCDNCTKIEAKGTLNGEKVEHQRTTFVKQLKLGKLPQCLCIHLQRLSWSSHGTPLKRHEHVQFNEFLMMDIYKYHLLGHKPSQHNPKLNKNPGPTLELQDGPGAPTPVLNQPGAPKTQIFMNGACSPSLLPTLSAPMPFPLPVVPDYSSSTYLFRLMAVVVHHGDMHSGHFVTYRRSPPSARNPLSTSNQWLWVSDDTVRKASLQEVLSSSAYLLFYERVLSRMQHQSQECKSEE
Assay: Biotin pulldown (Neutravidin enrichment) and immunoblotting for USP30
Type: cell-based
Conditions: HEK293T, 1 h; for extent of USP30 engagement and enrichment: 100 nM probe, pulldown; for probe concentration at which USP30 was enriched (pulldown) / probe concentration of maximal USP30 enrichment (pulldown): biotin pulldown and immunoblotting
Procedure: We next determined cellular engagement of endogenous USP30 with IMP-2587 or IMP-2586. […] In-cell concentration-dependent competition by IMP-2587 and IMP-2586 for USP30 were confirmed below 100 nM probe (Fig. 2b and c), whilst engagement of an exemplar unrelated DUB, UCHL1, occurred only at a much higher concentration (30 000 nM). We hypothesise that incomplete modification of USP30 by HA-Ub-VME is likely due to limited retention of USP30 activity in cell lysates, which have likely had the USP30 transmembrane domain compromised, highlighting the potential utility of a small molecule USP30 ABP applicable directly in intact cells. Direct USP30 target engagement by IMP-2587 and IMP-2586 was confirmed in HEK293T cells following 1 h probe treatment followed by cell lysis and CuAAC bio-orthogonal ligation to capture reagent azido-TAMRA-biotin (AzTB) for IMP-2587 or alkyne-TAMRA-biotin for IMP-2586 (Fig. 3a).[27] […] This unspecific background labelling is presumably due to the previously reported higher off-target CuAAC reactivity of an alkyne-bearing capture reagent, applied here due to incorporation of an azide tag in IMP-2586.[28] Moreover, the labelling of USP30 was further confirmed by biotin pulldown and immunoblotting. […]
d) Live cell probe incubation, lysate click chemistry and precipitation 6-well HEK293T cells were incubated with media containing compounds ABP 2 and ABP 4 at indicated concentrations for 1 h at 37 °C. The cells were washed with PBS and lysed with lysis buffer (50 μL (1% (v/v) Triton X-100, 0.1% (w/v) sodium dodecyl sulfate (SDS), EDTA-free complete protease inhibitor cocktail (1×, Roche) in PBS on ice for 10 min. The lysates were scraped and transferred to corresponding Lo-Bind Eppendorfs. Each lysate was sonicated for 1 minute, and the samples centrifuges at 5,000 x g at 4 °C for 5 minutes to pellet insoluble cellular debris. The supernatant was collected, and protein concentration was determined using the DC Protein Assay (Bio-Rad) as per manufacturer’s instructions, and normalised to lowest concentrated sample (e.g. 1 mg/mL, using lysis buffer). The following “click mixture” was prepared separately, preparing 6 μL for every 100 μL of […]
Capture reagent (AzRB/AzT for ABP 2, YnT/YnB for ABP 4 10 mM in DMSO, 1 vol; final concentration […]
CuSO4 (50 mM in water, 2 vol; final concentration in reaction 1 mM)
TCEP (50 mM in water, 2 vol; final concentration in reaction 1 mM)
TBTA (10 mM in DMSO, 1 vol; final concentration in reaction 100 µM)
The click mixture was vortexed and incubated at room temperature for 2 min before 6 μL of the mixture was added to every 100 μL of lysate. The reaction mixtures were shaken at room temperature for 1 h before being quenched with EDTA (500 mM in H2O) to a final concentration of 10 mM.
Proteins were precipitated by adding H2O (1 vol), MeOH (2 vol) and CHCl3 (0.5 vol), vortexing briefly then centrifuging at 17,000 × g for 5 min. The top H2O/MeOH layer was discarded and the middle layer of protein pellet and lower CHCl3 layer retained. The suspension was washed with MeOH (300 μL), and sonicated to break up the pellet. The proteins were pelleted by centrifugation at 10,000–17000 × g for 5–10 min or until a compact pellet was formed. The protein pellet was washed once more with MeOH (1 mL). The pellet was resuspended by sonicating and completely dissolving in 1% (w/v) SDS in PBS (to 5 mg/mL protein) before being made up to 1 mg/mL protein with PBS.
The lysate samples (10-20 μg) were mixed with 4× Laemmli sample loading buffer (250 mM Tris -HCl pH 6.8, 30% (v/v) glycerol, 10% (w/v) SDS, 0.05% (w/v) bromophenol blue) supplemented with 20% v/v β-mercaptoethanol (BME) and boiled for 10 min at 95 °C. The resulting protein samples were separated according to the protocol in section 3.2.c. Gel were imaged on a Typhoon imager (GE Healthcare; λEx 532 nm, λEm 575 nm for TAMRA. For protein loading quantification, gels were stained with Coomassie blue staining solution overnight, rinsed with water and imaged on an ImageQuant™ […]

Compound | extent of USP30 engagement and enrichment | probe concentration at which USP30 was enriched (pulldown) | probe concentration of maximal USP30 enrichment (pulldown)
C#Cc1cccc(-c2cc(NC(=O)CC3CCN(C#N)C3)on2)c1 (stereo not drawn) [IMP-2587] | almost complete engagement and enrichment | 10 nM | 100 nM
N#CN1CC[C@@H](NC(=O)c2cc(-c3ccccc3Oc3ccc(N=[N+]=[N-])cc3)n[nH]2)C1 [IMP-2586] | almost complete engagement and enrichment | 10 nM | 100 nM
